Legend:
[1] = en solution aqueuse, en dessous d'un pH de 6,8; cited from earlier work
[2] = ATR-FTIR spectroscopy of the effect on artificial lipid bilayer membranes (phase transition); conditions: DPPC membranes
Source text: (§1) L'effet, sur les bicouches lipidiques qui constituent les membranes biologiques, d'un complexe suivant l'invention renfermant de l'acide orthosilicique et de la vanilline, a été étudié par spectroscopie ATR-FTIR. Des membranes artificielles formées de DPPC (1,2 dipalmitoyl-sn-glycéro-3-phosphatydilcholine) ou d'un mélange 85/15 de DPPC/DPPS (1,2 dipalmitoyl-sn-glycéro-3-phosphatydilsérine) ont été utilisées. Les membranes présentent des transitions de phase à des températures caractéristiques (Tc à 41 °C et 53°C pour le DPPC et le DPPS respectivement). […] Les résultats tendent à montrer que le complexe s'insère dans la bicouche lipidique et de ce fait diminue les interactions entre les lipides. […] Il se produit une séparation de phase et le mélange lipidique n'est plus homogène. Ceci suggère que le composé aromatique stabilisant l'acide orthosilicique a une affinité plus grande pour un des deux lipides ce qui provoque une ségrégation spatiale des composants de la membrane.

[3] = ATR-FTIR spectroscopy of the effect on artificial mixed lipid bilayer membranes (phase transition); conditions: DPPC/DPPS 85/15 membranes
Source text: as §1

| Substance | dissociation du complexe [1] | effet sur la transition de phase des lipides [2] | effet sur le mélange lipidique [3] |
| --- | --- | --- | --- |
| complexe de silicium-catéchol | complètement dissocié |  |  |
| complexe stabilisé d'acide orthosilicique et de 4-hydroxy-3-méthoxybenzaldéhyde (vanilline) [Exemple 1] |  | diminue l'énergie requise pour que les lipides participent à la transition de phase | induit une démixtion des deux lipides |

Source: EP2526954A1, “Bioavailable silicon complex, method for preparing same and use thereof” (Dexsil Labs, priority 2011, dated 2012)
